Measured values reported in US3931140A, “(H-gly-gly-tyr-ala)^1 -somatostatin” (American Home Products Corporation, priority 1975, dated 1976).

Tested on: growth hormone present in the plasma
Assay: In vivo growth hormone in plasma of Nembutal-treated rats by radioimmunoassay
Conditions: for growth hormone per milliliter of plasma (average): 500 micrograms per kilogram, blood sampled 15 minutes after administration, p<0.01
Method: The in vivo activity of the heptadecapeptide of this invention was established by injecting Nembutal intraperitoneally into rats weighing between 200 to 250 grams in an amount of 50 milligrams per kilogram body weight. After five minutes, the heptadecapeptide of this invention was administered to the rats in a dose of 500 micrograms per kilogram body weight from a solution made from three milligrams of the heptadecapeptide,1.2 milliliters of water and 4.8 milliliters of polyethylene glycol (PEG 400). The rats blood was sampled 15 minutes after administration of the heptadecapeptide and the amount of growth hormone present in the plasma was determined by radioimmunoassay.

## C[C@H](NC(=O)[C@H](Cc1ccc(O)cc1)NC(=O)CNC(=O)CN)C(=O)NCC(=O)N[C@H]1CSSC[C@@H](C(=O)O)NC(=O)[C@H](CO)NC(=O)[C@H]([C@@H](C)O)NC(=O)[C@H](Cc2ccccc2)NC(=O)[C@H]([C@@H](C)O)NC(=O)[C@H](CCCCN)NC(=O)[C@H](Cc2c[nH]c3ccccc23)NC(=O)[C@H](Cc2ccccc2)NC(=O)[C@H](Cc2ccccc2)NC(=O)[C@H](CC(N)=O)NC(=O)[C@H](CCCCN)NC1=O [heptadecapeptide, Glycyl-glycyl-L-tyrosyl-L-alanyl-glycyl-L-cysteinyl-L-lysyl-L-asparaginyl-L-phenylalanyl-L-phenylalanyl-L-tryptophyl-L-lysyl-L-threonyl-L-phenylalanyl-L-threonyl-L-seryl-L-cysteine[6-17 cyclic disulfide]]
Another experiment, twelve rats for control and testing, control 66 ± 10
  growth hormone per milliliter of plasma (average): 21 ± 7 nanograms growth hormone per milliliter of plasma
Comparison with somatostatin, in words
  activity in reducing growth hormone concentrations in blood plasma compared with somatostatin: exceeds the activity of somatostatin
First determination, eight treated rats, Nembutal 50 mg/kg i.p., control 86 ± 15
  growth hormone per milliliter of plasma (average): 9 ± 4 nanograms growth hormone per milliliter of plasma
